From patent US8609663B2, “Compounds for modulating TLR2” (priority 2009, dated 2013)
“Also recorded” adds a separate entry of the source.

Columns and labels:
[1] = system: LCMV-induced NF-κB activity; assay: cells; assay type: cell-based, human; details: for IC50: Homo sapiens, HEK293, read-out: 50% Inhibitory Dose
[2] = system: TNF-α-induced NF-κB activity; assay type: cell-based, human
[3] = system: LCMV-induced IL-8 production; assay type: cell-based, human
[4] = system: TNF-α-induced IL-8 production; assay type: cell-based, human
TLR2 = assay type: cell-based, human
HLA-ABC = assay type: cell-based, human
LCMV [5] = assay type: cell-based, lymphocytic choriomeningitis virus (LCMV)
LCMV [6] = assay type: cell-based, lymphocytic choriomeningitis virus (LCMV); details: 3.3 μM
LCMV-Arm [7] = assay type: cell-based, lymphocytic choriomeningitis virus (LCMV)
[8] = system: IL-8 production in primary human monocytes; assay type: cell-based
[9] = system: cytokine responses in mouse primary macrophages; assay type: cell-based
[10] = system: HSV-induced NF-κB activation; assay: HSV-induced NF-κB luciferase assay in SZ10 cells; assay type: cell-based, human; details: HSV-1 7134R
[11] = system: Pam2CSK4 (TLR2 ligand) and LPS (TLR4 ligand) induced cytokine production; design: species or system C57BL/6 mice; details: mouse
LCMV-Arm [12] = assay type: in vivo, C57BL/6 mice
HSV-1 = HSV-1 (VP16-GFP strain) replication in Vero cells, GFP fluorescence; assay type: cell-based, Herpes simplex virus 1 (HSV-1); details: 24 hours, dose-dependent manner
Tacaribe virus (TCRV) = assay type: cell-based
[13] = system: Rift Valley Fever Virus (RVFV); assay type: cell-based
[14] = Preliminary toxicity observation in mice; details: injected intravenously at 16.67 mg/kg (200 μg/mouse)

With O=C(/C=C/c1ccc(O)c(O)c1)OCCc1ccccc1 [CAPE, reference compound] as the compound, how does the “LCMV-induced NF-κB activation” value [1] read?
The value was “effectively blocked”.

With CC1CCN(Cc2ccc(NC(=O)NCc3noc4ccccc34)cc2)CC1 [Compound 100] as the compound, how does the “% Inhibition” value [1] read?
Its value is 80%.

And the “LCMV-induced NF-κB activity” value [1]?
The value was “dramatically inhibited”.

And the “LCMV-induced NF-κB activity and cytokine response” value [1]?
The value was “specifically inhibit”.

And the IC50 [1]?
Its IC50 is 1 µM.

What about the “TNF-α-induced NF-κB activity” value [2] of the same compound?
The value was “did not affect”.

And the “LCMV-induced IL-8 production” value [3]?
The value was “dramatically inhibited”.

What about the “TNF-α-induced IL-8 production” value [4] of the same compound?
Its value is “did not affect”.

What about the “LCMV-induced enhanced expression of TLR2” value (TLR2) of the same compound?
The value was “specifically prevented”.

What about the “TNF-α-induced expression of TLR2” value (TLR2) of the same compound?
Its value is “did not affect”.

And the “expression of HLA-ABC” value (HLA-ABC)?
The value was “did not affect; also recorded: not affected”.

And the “LCMV replication (expression of LCMV-NP) in SZ10 cells” value (LCMV [5])?
The value was “significantly inhibited; also recorded: dramatically inhibited”.

And the “LCMV replication in HEK cells that did not express TLR2” value (LCMV [5])?
The value was “could also inhibit”.

And the “LCMV replication in Vero cells” value (LCMV [6])?
The value was “significantly inhibited”.

And the “LCMV replication in BHK-21 cells” value (LCMV-Arm [7])?
The value was “inhibited”.

What about the “LCMV induced IL-8 production” value [8] of the same compound?
The value was “significant (p<0,01 by two-tailed Student's t test) reduction”.

And the “poly IC induced production of IL-8” value [8]?
Its value is “did not affect”.

What about the “recombinant human TNF-α induced production of IL-8” value [8] of the same compound?
Its value is “did not affect”.

And the “HSV-1 induced MCP-1 production” value [9]?
The value was “efficiently blocked”.

And the “HSV-1 induced RANTES production” value [9]?
Its value is “efficiently blocked”.

And the “LCMV induced production of MCP-1” value [9]?
The value was “significantly inhibited”.

And the “LCMV induced production of RANTES” value [9]?
Its value is “significantly inhibited”.

And the “LPS induced MCP-1 production” value [9]?
Its value is “inhibited”.

What about the “Pam2CSK4 induced MCP-1 production” value [9] of the same compound?
The value was “inhibited”.

What about the “Pam2CSK4 induced RANTES in vitro in macrophages” value [9] of the same compound?
Its value is “inhibit”.

And the “poly IC induced production of MCP-1” value [9]?
Its value is “did not affect”.

What about the “poly IC induced production of RANTES” value [9] of the same compound?
Its value is “did not affect”.

What about the “HSV-induced NF-κB activation” value [10] of the same compound?
The value was “Blocks”.

What about the “LPS induced IL-6 induction in vivo” value [11] of the same compound?
Its value is “inhibits”.

What about the “Pam2CSK4 induced IL-6 induction in vivo” value [11] of the same compound?
The value was “inhibits”.

What about the “LPS induced IL-6 production in serum” value ([11]; in vivo, iv) of the same compound?
The value was “significantly blocked”.

And the “LPS induced MCP-1 production in serum” value ([11]; in vivo, iv)?
The value was “significantly blocked”.

And the “LPS-induced RANTES production in serum” value ([11]; in vivo, iv)?
The value was “did not affect”.

And the “Pam2CSK4-induced RANTES production in serum” value ([11]; in vivo, iv)?
The value was “did not affect”.

And the “Pam2CSK4 induced IL-6 production in serum” value ([11]; in vivo, iv)?
The value was “significantly blocked”.

And the “Pam2CSK4 induced MCP-1 production in serum” value ([11]; in vivo, iv)?
Its value is “significantly blocked”.

What about the “levels of virus in the spleen” value (LCMV-Arm [12]; 48 h post-infection, n=8, p<0.05 vs DMSO-treated or untreated mice) of the same compound?
The value was “significantly lower”.

And the “LCMV-induced inflammation in a mouse model” value (LCMV-Arm [12]; Example 13, i.v. 16.67 mg/kg (200 μg/mouse), serum MCP-1)?
The value was “Inhibits”.

What about the “LCMV induced MCP-1 production in serum” value (LCMV-Arm [12]; single dose 400 μg/mouse (16 mg/kg), 18 h post-infection, vs DMSO) of the same compound?
The value was “significant decrease”.

And the “LCMV induced type I IFN production” value (LCMV-Arm [12]; single dose 400 μg/mouse, 18 h post-infection)?
Its value is “did not affect”.

What about the HSV-1 replication (HSV-1) of the same compound?
The HSV-1 replication was “inhibits”.

And the “replication and production of TCRV” value (Tacaribe virus (TCRV))?
Its value is “can inhibit”.

What about the “activity against RVFV” value [13] of the same compound?
The value was “no role”.

What about the “toxic effect in mice” value [14] of the same compound?
Its value is “no apparent toxic effect”.

With Cc1ccc2onc(CNC(=O)Nc3ccc(CN4CCC(C)CC4)cc3)c2c1 [Compound 101] as the compound, how does the “% Inhibition” value [1] read?
The value was 60%.

And the IC50 [1]?
The IC50 was 1.6 µM.

What does the source list for Cc1ccc2onc(CNC(=O)Nc3cccc(C(F)(F)F)c3)c2c1 [Compound 102]?
% Inhibition [1]: 27%; IC50 [1]: > 6.6 µM

Which “% Inhibition” value [1] does the source give for O=C(NCc1noc2ccccc12)Nc1cccc(Cl)c1 [Compound 103] here?
The value was 26%.

What about the IC50 [1] of the same compound?
The IC50 was over 6.6 µM.

Which results are given for COc1cccc(NC(=O)NCc2noc3ccccc23)c1 [Compound 105]?
% Inhibition [1]: 20%; IC50 [1]: > 6.6 µM

Which results are given for COC(=O)c1ccc(NC(=O)NCc2noc3ccccc23)cc1 [Compound 106]?
% Inhibition [1]: 75%; IC50 [1]: 1.6 µM

Which “% Inhibition” value [1] does the source give for CC1CCN(Cc2ccc(NC(=O)Nc3cccs3)cc2)CC1 [Compound 107] here?
The value was 47%.

And the IC50 [1]?
Its IC50 is 3 µM.

Which results are given for CC1CCN(Cc2ccc(NC(=O)Nc3cn(C)c(=O)c4ccccc34)cc2)CC1 [Compound 108]?
% Inhibition [1]: 39%; IC50 [1]: > 6.6 µM

With Cc1ccc2onc(CNC(=O)Nc3ccccc3N3CCN(C)CC3)c2c1 [Compound 109] as the compound, how does the “% Inhibition” value [1] read?
Its value is 39%.

And the IC50 [1]?
Its IC50 is over 6.6 µM.

Which results are given for O=C(NCCc1ccccc1)c1nnc(-c2cccnc2)o1 [Compound 110]?
% Inhibition [1]: 40%; IC50 [1]: > 6.6 µM

For COc1cc(CCNC(=O)c2nnc(-c3cccnc3)o2)cc(OC)c1 [Compound 112], which “% Inhibition” value [1] is on record?
The value was 65%.

What about the IC50 [1] of the same compound?
The IC50 was 0.4 µM.

With CCc1ccc(CCNC(=O)c2nnc(-c3cccnc3)o2)cc1 [Compound 113] as the compound, how does the “% Inhibition” value [1] read?
Its value is 30%.

What about the IC50 [1] of the same compound?
Its IC50 is over 6.6 µM.

Which results are given for O=C(NCCc1ccc(O)cc1)c1nnc(-c2cccnc2)o1 [Compound 114]?
% Inhibition [1]: 31%; IC50 [1]: > 6.6 µM

Which results are given for O=C(NCCc1ccc(O)c(O)c1)c1nnc(-c2cccnc2)o1 [Compound 115]?
% Inhibition [1]: 40%; IC50 [1]: > 6.6 µM

Which results are given for O=C(NCCc1ccc(-c2ccccc2)cc1)c1nnc(-c2cccnc2)o1 [Compound 116]?
% Inhibition [1]: 50%; IC50 [1]: 0.8 µM

For COc1ccc(CCC(C)NC(=O)c2nnc(-c3cccnc3)o2)cc1 (centres unmarked) [Compound 117], which “% Inhibition” value [1] is on record?
Its value is 27%.

And the IC50 [1]?
The IC50 was over 6.6 µM.

With O=C(NCCc1cccc(Cl)c1)c1nnc(-c2cccnc2)o1 [Compound 118] as the compound, how does the “% Inhibition” value [1] read?
Its value is 50%.

And the IC50 [1]?
Its IC50 is 3.3 µM.

For CCOc1ccc(CCNC(=O)c2nc(-c3cccnc3)no2)cc1 [Compound 120], which “% Inhibition” value [1] is on record?
Its value is 75%.

What about the “LCMV-induced NF-κB activity and cytokine response” value [1] of the same compound?
The value was “specifically inhibit”.

What about the IC50 [1] of the same compound?
The IC50 was 0.8 µM.

Which results are given for O=C(NCc1cccnc1)c1ccc(CSCc2cccc(F)c2)o1 [Compound 121]?
% Inhibition [1]: 60%; LCMV-induced NF-κB activity and cytokine response [1]: specifically inhibit; IC50 [1]: 0.8 µM

Which “% Inhibition” value [1] does the source give for O=C(COCc1cc(-c2ccco2)on1)Nc1cccnc1 [Compound 122] here?
Its value is 50%.

And the “LCMV-induced NF-κB activity and cytokine response” value [1]?
Its value is “specifically inhibit”.

And the IC50 [1]?
Its IC50 is 3.3 µM.

And the “Pam2CSK4 induced RANTES in vitro in macrophages” value [9]?
The value was “inhibit”.

For O=C(CCS(=O)(=O)c1nc(-c2ccc3c(c2)OCO3)cc(C(F)(F)F)n1)Nc1ccc(OC(F)(F)F)cc1 [Compound 125], which “% Inhibition” value [1] is on record?
Its value is 60%.

And the “LCMV-induced NF-κB activity and cytokine response” value [1]?
Its value is “specifically inhibit”.

And the IC50 [1]?
The IC50 was 0.8 µM.

With COc1ccc(C2C3=C(CCCC3=O)Nc3[nH]nc(-c4ccc(Cl)cc4)c32)cc1OC (centres unmarked) [Compound 132] as the compound, how does the “% Inhibition” value [1] read?
The value was 75%.

And the “LCMV-induced NF-κB activity and cytokine response” value [1]?
Its value is “specifically inhibit”.

What about the IC50 [1] of the same compound?
Its IC50 is 0.8 µM.

For O=C1CC(c2ccc(F)cc2)CC2=C1C=Nc1ccccc1N2 (centres unmarked) [Compound 133], which “% Inhibition” value [1] is on record?
Its value is 60%.

And the “LCMV-induced NF-κB activity and cytokine response” value [1]?
The value was “specifically inhibit”.

What about the IC50 [1] of the same compound?
The IC50 was 0.8 µM.

With O=C(CN(C1=NC2CS(=O)(=O)CC2S1)c1ccc(F)cc1)Nc1ccccc1C(F)(F)F (centres unmarked) [Compound 134] as the compound, how does the “% Inhibition” value [1] read?
The value was 50%.

And the “LCMV-induced NF-κB activity and cytokine response” value [1]?
The value was “specifically inhibit”.

What about the IC50 [1] of the same compound?
Its IC50 is 1.6 µM.

Which results are given for O=C(Nc1cccnc1)c1ccc(NC(=O)C2OCCc3ccccc32)cc1 (centres unmarked) [Compound 135]?
% Inhibition [1]: 60%; LCMV-induced NF-κB activity and cytokine response [1]: specifically inhibit; IC50 [1]: 0.8 µM

For COc1cc(/C=C/C(=O)CC(=O)/C=C/c2ccc(O)c(OC)c2)ccc1O [Curcumin, reference compound], which “LCMV-induced NF-κB activation” value [1] is on record?
The value was “effectively blocked”.

With C=C1C(=O)O[C@@H]2C[C@@H](C)[C@@H]3C=CC(=O)[C@@]3(C)[C@@H](O)[C@H]12 [Helenalin, reference compound] as the compound, how does the “LCMV-induced NF-κB activation” value [1] read?
The value was “effectively blocked”.

For CC(C)[C@]12O[C@H]1[C@@H]1O[C@]13[C@]1(O[C@H]1C[C@H]1C4=C(CC[C@@]13C)C(=O)OC4)[C@@H]2O [Triptolide, reference compound], which “LCMV-induced NF-κB activation” value [1] is on record?
Its value is “effectively blocked”.
